Experimental data reported in ChEMBL document CHEMBL1201862, “PubChem BioAssay data set” (2004).
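Each compound was tested at five concentrations against cells in 96-well plates for 48 hours. GI50: concentration for 50% inhibition of growth.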 The source made the active and inactive calls. Rule as the data show it: active = GI50 up to about 1.1 µM and inactive = higher.

How the values were obtained:
Experiment in all cases: growth of human tumour cells (NCI), 48 h
NCI-H226 = system: NCI-H226
UO-31 = system: UO-31
EKVX = system: EKVX
OVCAR-8 = system: OVCAR-8
A498 = system: A498
CCRF-CEM = system: CCRF-CEM
T47D = system: T47D
SF-539 = system: SF-539
HT-29 = system: HT-29
SF-295 = system: SF-295
K562 = system: K562
SR = system: SR
DU-145 = system: DU-145
MOLT-4 = system: MOLT-4
SF-268 = system: SF-268
MDA-N = system: MDA-N
Hs-578T = system: Hs-578T
SK-OV-3 = system: SK-OV-3
UACC-62 = system: UACC-62
U-251 = system: U-251
HOP-62 = system: HOP-62
RXF 393 = system: RXF 393
M14 = system: M14
KM12 = system: KM12
SNB-75 = system: SNB-75
NCI-H460 = system: NCI-H460
SNB-19 = system: SNB-19
NCI-H23 = system: NCI-H23
NCI/ADR-RES = system: NCI/ADR-RES
SK-MEL-5 = system: SK-MEL-5
OVCAR-4 = system: OVCAR-4
BT-549 = system: BT-549
MCF7 = system: MCF7
HCT-116 = system: HCT-116
OVCAR-5 = system: OVCAR-5
HOP-92 = system: HOP-92
CAKI-1 = system: CAKI-1
HCT-15 = system: HCT-15
ACHN = system: ACHN
SK-MEL-28 = system: SK-MEL-28
PC-3 = system: PC-3
MDA-MB-231 = system: MDA-MB-231
COLO 205 = system: COLO 205
SK-MEL-2 = system: SK-MEL-2
A549 = system: A549
NCI-H522 = system: NCI-H522
IGROV-1 = system: IGROV-1
SN12C = system: SN12C
HL-60 = system: HL-60
RPMI-8226 = system: RPMI-8226
UACC-257 = system: UACC-257
LOX IMVI = system: LOX IMVI
MDA-MB-435 = system: MDA-MB-435
OVCAR-3 = system: OVCAR-3
Malme-3M = system: Malme-3M
SW-620 = system: SW-620
786-0 = system: 786-0
TK-10 = system: TK-10

Structure (SMILES): O=c1[nH]c2cc([N+](=O)[O-])c(N(CCO)CCO)c([N+](=O)[O-])c2[nH]1
- GI50 (NCI-H226): 24 µM (inactive)
- GI50 (UO-31): 35.1 µM (inactive)
- GI50 (EKVX): 12.9 µM (inactive)
- GI50 (OVCAR-8): 31.3 µM (inactive)
- GI50 (A498): 22.2 µM (inactive)
- GI50 (CCRF-CEM): 44.7 µM (inactive)
- GI50 (T47D): 19.5 µM (inactive)
- GI50 (SF-539): 23.8 µM (inactive)
- GI50 (HT-29): 30.3 µM (inactive)
- GI50 (SF-295): 28.4 µM (inactive)
- GI50 (K562): 32 µM (inactive)
- GI50 (SR): 24.1 µM (inactive)
- GI50 (DU-145): 39.4 µM (inactive)
- GI50 (MOLT-4): 24.5 µM (inactive)
- GI50 (SF-268): 37.4 µM (inactive)
- GI50 (MDA-N): 33.7 µM (inactive)
- GI50 (Hs-578T): 53.2 µM (inactive)
- GI50 (SK-OV-3): 27 µM (inactive)
- GI50 (UACC-62): 24.1 µM (inactive)
- GI50 (U-251): 44.1 µM (inactive)
- GI50 (HOP-62): 33 µM (inactive)
- GI50 (RXF 393): 16.7 µM (inactive)
- GI50 (M14): 28.6 µM (inactive)
- GI50 (KM12): 22.6 µM (inactive)
- GI50 (SNB-75): 23.6 µM (inactive)
- GI50 (NCI-H460): 21.4 µM (inactive)
- GI50 (SNB-19): 39.8 µM (inactive)
- GI50 (NCI-H23): 30.5 µM (inactive)
- GI50 (NCI/ADR-RES): 31.8 µM (inactive)
- GI50 (SK-MEL-5): 17.5 µM (inactive)
- GI50 (OVCAR-4): 36 µM (inactive)
- GI50 (BT-549): 18.5 µM (inactive)
- GI50 (MCF7): 46.8 µM (inactive)
- GI50 (HCT-116): 27.7 µM (inactive)
- GI50 (OVCAR-5): 31.9 µM (inactive)
- GI50 (HOP-92): 41 µM (inactive)
- GI50 (CAKI-1): 29 µM (inactive)
- GI50 (HCT-15): 31.3 µM
- GI50 (ACHN): 43.7 µM (inactive)
- GI50 (SK-MEL-28): 29.4 µM (inactive)
- GI50 (PC-3): 44.4 µM (inactive)
- GI50 (MDA-MB-231): 52.6 µM (inactive)
- GI50 (COLO 205): 20 µM (inactive)
- GI50 (SK-MEL-2): 37.6 µM (inactive)
- GI50 (A549): 35.2 µM (inactive)
- GI50 (NCI-H522): 28.1 µM (inactive)
- GI50 (IGROV-1): 65.5 µM (inactive)
- GI50 (SN12C): 34.8 µM (inactive)
- GI50 (HL-60): 28.2 µM (inactive)
- GI50 (RPMI-8226): 26.7 µM (inactive)
- GI50 (UACC-257): 27 µM (inactive)
- GI50 (LOX IMVI): 37.5 µM (inactive)
- GI50 (MDA-MB-435): 28.7 µM (inactive)
- GI50 (OVCAR-3): 16.9 µM (inactive)
- GI50 (Malme-3M): 61.2 µM (inactive)
- GI50 (SW-620): 41.2 µM (inactive)
- GI50 (786-0): 35.4 µM (inactive)

Structure (SMILES): CC(C)(C)OC(=O)NCC(c1c[nH]c2ccccc12)c1c[nH]c2ccccc12
- GI50 (NCI-H226): 21 µM (inactive)
- GI50 (UO-31): 14.1 µM (inactive)
- GI50 (EKVX): 12.7 µM (inactive)
- GI50 (OVCAR-8): 16.7 µM (inactive)
- GI50 (A498): > 100 µM (inactive)
- GI50 (CCRF-CEM): 14.6 µM (inactive)
- GI50 (T47D): 17 µM (inactive)
- GI50 (SF-539): 17.7 µM (inactive)
- GI50 (HT-29): 15.1 µM (inactive)
- GI50 (SF-295): 15.6 µM (inactive)
- GI50 (SR): 14.9 µM (inactive)
- GI50 (DU-145): 15.6 µM (inactive)
- GI50 (MOLT-4): 11.7 µM (inactive)
- GI50 (SF-268): 17.1 µM (inactive)
- GI50 (MDA-N): 17.5 µM (inactive)
- GI50 (Hs-578T): 24.1 µM (inactive)
- GI50 (SK-OV-3): 16.8 µM (inactive)
- GI50 (UACC-62): > 100 µM (inactive)
- GI50 (U-251): 16.1 µM (inactive)
- GI50 (HOP-62): 16.9 µM (inactive)
- GI50 (RXF 393): 4.56 µM (inactive)
- GI50 (M14): 14.9 µM (inactive)
- GI50 (KM12): 13.3 µM (inactive)
- GI50 (SNB-75): 14.7 µM (inactive)
- GI50 (NCI-H460): 14.9 µM (inactive)
- GI50 (SNB-19): 16.9 µM (inactive)
- GI50 (NCI-H23): 18.4 µM (inactive)
- GI50 (NCI/ADR-RES): 19.4 µM (inactive)
- GI50 (SK-MEL-5): 13 µM (inactive)
- GI50 (OVCAR-4): 12.9 µM (inactive)
- GI50 (BT-549): 18.9 µM (inactive)
- GI50 (MCF7): 67.5 µM (inactive)
- GI50 (HCT-116): 16 µM (inactive)
- GI50 (OVCAR-5): 16.9 µM (inactive)
- GI50 (HOP-92): 13.1 µM (inactive)
- GI50 (CAKI-1): 14.5 µM (inactive)
- GI50 (HCT-15): 20.8 µM
- GI50 (ACHN): > 100 µM (inactive)
- GI50 (TK-10): 15.5 µM (inactive)
- GI50 (SK-MEL-28): 18.1 µM (inactive)
- GI50 (PC-3): 15.8 µM (inactive)
- GI50 (MDA-MB-231): 16 µM (inactive)
- GI50 (COLO 205): 14.6 µM (inactive)
- GI50 (SK-MEL-2): 18.4 µM (inactive)
- GI50 (A549): 14.6 µM (inactive)
- GI50 (NCI-H522): 18.2 µM (inactive)
- GI50 (IGROV-1): 12.3 µM (inactive)
- GI50 (SN12C): 16.7 µM (inactive)
- GI50 (HL-60): 14.4 µM (inactive)
- GI50 (RPMI-8226): 6.62 µM (inactive)
- GI50 (UACC-257): 15.1 µM (inactive)
- GI50 (LOX IMVI): 17.9 µM (inactive)
- GI50 (MDA-MB-435): 15.7 µM (inactive)
- GI50 (OVCAR-3): 15.3 µM (inactive)
- GI50 (Malme-3M): 17.7 µM (inactive)
- GI50 (SW-620): 17 µM (inactive)
- GI50 (786-0): 16.1 µM (inactive)
